Reference: the supplement of paper PMC8671470
Where a name gives a salt, the structure may show the parent alone.

Tests used:
Settings in all cases: 72 h
K-562 = tested on: K-562
In short: (§1)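 Fifteen myeloid leukaemia lines were incubated for 72 h at 37 °C with 5% CO2 across five tenfold doses from 1 to 10,000 nM, in duplicate. ATP luminescence was normalised to vehicle and to a positive control at 10 µM and fitted with a four-parameter log-logistic model. The IC50 came from these dose–response fits.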

SHI-1 = tested on: SHI-1
In short: as §1

BV-173 = tested on: BV-173
In short: as §1

MV4-11 = tested on: MV4-11
In short: as §1

KU-812 = tested on: KU-812
In short: as §1

KCL-22 = tested on: KCL-22
In short: as §1

HEL = tested on: HEL
In short: as §1

THP-1 = tested on: THP-1
In short: as §1

MOLM-13 = tested on: MOLM-13
In short: as §1

HL-60 = tested on: HL-60
In short: as §1

KG-1 = tested on: KG-1
In short: as §1

LAMA-84 = tested on: LAMA-84
In short: as §1

ML-2 = tested on: ML-2
In short: as §1

Mono-Mac-6 = tested on: Mono-Mac-6
In short: as §1

[1] = tested on: myeloid leukemia patient primary cells Pat.11; assay: area under dose-response curve (viability, 1 nM-10 uM) (fraction (0-1)); higher = more sensitive
Description: (§2)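 AUC (0–1, higher = more sensitive) of the 5-point dose–response (1 nM–10 µM, 72 h, CellTiter-Glo) in primary AML/CML patient mononuclear cells. 0.030103 is the floor for inactive compounds.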

[2] = tested on: myeloid leukemia patient primary cells Pat.14; assay: as above
Description: as §2

[3] = tested on: myeloid leukemia patient primary cells Pat.5; assay: as above
Description: as §2

[4] = tested on: myeloid leukemia patient primary cells Pat.10; assay: as above
Description: as §2

[5] = tested on: myeloid leukemia patient primary cells Pat.2; assay: as above
Description: as §2

[6] = tested on: myeloid leukemia patient primary cells Pat.8; assay: as above
Description: as §2

[7] = tested on: myeloid leukemia patient primary cells Pat.7; assay: as above
Description: as §2

[8] = tested on: myeloid leukemia patient primary cells Pat.15; assay: as above
Description: as §2

[9] = tested on: myeloid leukemia patient primary cells Pat.13; assay: as above
Description: as §2

[10] = tested on: myeloid leukemia patient primary cells Pat.12; assay: as above
Description: as §2

[11] = tested on: myeloid leukemia patient primary cells Pat.9; assay: as above
Description: as §2

[12] = tested on: myeloid leukemia patient primary cells Pat.4; assay: as above
Description: as §2

[13] = tested on: myeloid leukemia patient primary cells Pat.1; assay: as above
Description: as §2

[14] = tested on: myeloid leukemia patient primary cells Pat.6; assay: as above
Description: as §2

[15] = tested on: myeloid leukemia patient primary cells Pat.11; assay: cell viability (% survival relative to DMSO control); higher = less cytotoxic
In short: (§3)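 Thawed mononuclear cells from AML or CML patients were purified on Ficoll and cultured for 72 h in RPMI 1640 with 10% FBS, at 10,000 cells/well, on 384-well plates carrying 70 pre-printed compounds at 1–10,000 nM in five tenfold steps, in duplicate. Viability came from CellTiter-Glo, normalised against DMSO and against 10 μM proteasome inhibitor. Any area under the curve given was derived from log-logistic curve fits in the drc and PharmacoGx R packages, and these fits had four parameters.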

[16] = tested on: myeloid leukemia patient primary cells Pat.3; assay: as above
In short: as §3

[17] = tested on: myeloid leukemia patient primary cells Pat.10; assay: as above
In short: as §3

[18] = tested on: myeloid leukemia patient primary cells Pat.13; assay: as above
In short: as §3

[19] = tested on: myeloid leukemia patient primary cells Pat.12; assay: as above
In short: as §3

[20] = tested on: myeloid leukemia patient primary cells Pat.9; assay: as above
In short: as §3

[21] = tested on: myeloid leukemia patient primary cells Pat.1; assay: as above
In short: as §3

[22] = tested on: myeloid leukemia patient primary cells Pat.3; assay: area under dose-response curve (viability, 1 nM-10 uM) (fraction (0-1)); higher = more sensitive
Description: as §2

CC(C)(Cc1ccccc1)NCC(O)c1ccc(O)c(NS(C)(=O)=O)c1 (stereo unspecified) [Zinterol hydrochloride]
Settings	IC50 (cell viability) [µM]	area under dose-response curve
BV-173	> 10	–
HEL	> 10	–
HL-60	> 10	–
K-562	> 10	–
KCL-22	> 10	–
KG-1	> 10	–
KU-812	> 10	–
LAMA-84	> 10	–
ML-2	> 10	–
MOLM-13	> 10	–
MV4-11	> 10	–
Mono-Mac-6	0.0976	–
SHI-1	> 10	–
THP-1	> 10	–
[1]	–	< 0.0301
[2]	–	< 0.0301
[3]	–	< 0.0301
[4]	–	< 0.0301
[5]	–	< 0.0301
[6]	–	< 0.0301
[7]	–	< 0.0301
[8]	–	< 0.0301
[9]	–	< 0.0301
[10]	–	< 0.0301
[11]	–	< 0.0301
[12]	–	< 0.0301
[13]	–	< 0.0301
[14]	–	< 0.0301

cell viability [%]
Settings	[15]	[16]	[17]	[18]	[19]	[20]	[21]
1 nM	95.7	84.7	61	96.7	90.2	79.2	89.4
10 nM	> 100	> 100	94.8	99.8	98.3	79.5	> 100
100 nM	> 100	93.4	38.2	92.6	93.9	67.4	98.6
1000 nM	96.2	90.2	> 100	> 100	99	74.7	94.8
10000 nM	> 100	87.3	> 100	> 100	97.5	87.2	> 100

c1ccc2c(c1)SCc1c-2[nH]c2ccccc12
Settings	IC50 (cell viability) [µM]	area under dose-response curve
BV-173	0.646	–
HEL	3.3	–
HL-60	2	–
K-562	4.42	–
KCL-22	2.18	–
KG-1	0.76	–
KU-812	2.92	–
LAMA-84	4.96	–
ML-2	1.48	–
MOLM-13	1.97	–
MV4-11	1.06	–
Mono-Mac-6	2.89	–
SHI-1	2.6	–
THP-1	4.04	–
[1]	–	0.148
[2]	–	0.403
[3]	–	0.787
[4]	–	0.505
[5]	–	0.142
[6]	–	0.139
[7]	–	0.259
[8]	–	0.22
[9]	–	0.176
[10]	–	0.165
[11]	–	0.397
[12]	–	0.192
[13]	–	0.132
[14]	–	0.14
[22]	–	0.37

cell viability [%]
Settings	[15]	[16]	[17]	[18]	[19]	[20]	[21]
1 nM	> 100	96.1	73.8	90.5	96.4	91.9	95.2
10 nM	94.7	76.1	59.9	72.1	96.2	34.7	64.7
100 nM	99.1	89.8	41.9	92.1	94.1	71	96.7
1000 nM	89.8	2.3	3.78	61.1	81.1	2.02	85.8
10000 nM	0.682	< 0	42.4	22.6	0.896	5.35	0.548

O=C(c1c2ccccc2cc2ccccc12)N1CCC(N2CCC[C@@H](C(=O)N3CCOCC3)C2)CC1
Settings	IC50 (cell viability) [µM]	area under dose-response curve
BV-173	> 10	–
HEL	> 10	–
HL-60	1.81	–
K-562	> 10	–
KCL-22	> 10	–
KG-1	> 10	–
KU-812	> 10	–
LAMA-84	> 10	–
ML-2	> 10	–
MOLM-13	2.77	–
MV4-11	8.82	–
Mono-Mac-6	> 10	–
SHI-1	> 10	–
THP-1	> 10	–
[1]	–	< 0.0301
[2]	–	< 0.0301
[3]	–	0.309
[4]	–	< 0.0301
[5]	–	< 0.0301
[6]	–	< 0.0301
[7]	–	0.312
[8]	–	< 0.0301
[9]	–	< 0.0301
[10]	–	< 0.0301
[11]	–	0.327
[12]	–	< 0.0301
[13]	–	< 0.0301
[14]	–	< 0.0301
[22]	–	< 0.0301

cell viability [%]
Settings	[15]	[16]	[17]	[18]	[19]	[20]	[21]
1 nM	99.3	> 100	88.3	85.6	> 100	63.1	> 100
10 nM	> 100	96.9	67.9	89.6	92	88.4	83
100 nM	92.5	> 100	78.7	92.9	99.7	77.5	> 100
1000 nM	72.6	52.6	29.7	62.8	80.6	2.84	58.3
10000 nM	98	78.8	80.8	86.7	96.9	71.4	96.7
